We go through 18 compounds from patent US10233180B2, “Substituted nitrogen-containing heterocyclic derivatives, pharmaceutical compositions comprising the same and applications of antitumor thereof” (ZHEJIANG UNIVERSITY, priority 2014, dated 2019).

The target in one test is T1, Akt1 (Homo sapiens, UniProt P31749).
T1 construct: purchased 32-021
As to the kind of experiment: AKT1/PKBα KinEASE FP Fluorescein Green Assay (fluorescence polarization kinase kit). The class given is biochemical. The settings on record: 1 h reaction, read-out: Inhibitory activities against Akt1 (IC50). In a few lines:
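FP competition kinase assay: compounds (50 μM stock) with STK Substrate 3 and ATP, 1 h reaction at room temperature; stopped with stop/antibody mix, 4 h at room temperature, then polarization read. Inhibition derived from polarization values; IC50 calculated; triplicate wells.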

In test [1] the test system is Human ovarian cancer cell strain OVCAR-8. As to the kind of experiment: MTT assay, inhibition of tumor cell growth in vitro, 72 h. In kind it is cell-based. The settings on record: Homo sapiens, OVCAR-8, MTT, read-out: Antitumor proliferative activities of tumor cell (IC50, μM) OVCAR-8. In a few lines: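 OVCAR8 cells in RPMI 1640 plus FBS were seeded at 4000 cells/well and exposed for 72 h at 37 °C to compound at 50, 10, 2, 0.4 and 0.08 μM final, with 1% DMSO as blank. Inhibition was calculated from OD relative to control, and IC50 was derived by the Bliss method.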

Test [2] concerns human colon cancer cell strain HCT-116. The test is described as above. The class given is cell-based. The settings on record: Homo sapiens, HCT-116, MTT, read-out: Antitumor proliferative activities of tumor cell (IC50, μM) HCT-116 (converted). In a few lines:
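Cells in RPMI 1640 with FBS, 4000 cells/well, exposed 72 h at 37 °C, 5% CO2 to final 50, 10, 2, 0.4 and 0.08 μM; 1% DMSO blank. MTT OD gives % inhibition versus control; IC50 derived by Bliss method.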

T1 sequence (P31749 whole entry): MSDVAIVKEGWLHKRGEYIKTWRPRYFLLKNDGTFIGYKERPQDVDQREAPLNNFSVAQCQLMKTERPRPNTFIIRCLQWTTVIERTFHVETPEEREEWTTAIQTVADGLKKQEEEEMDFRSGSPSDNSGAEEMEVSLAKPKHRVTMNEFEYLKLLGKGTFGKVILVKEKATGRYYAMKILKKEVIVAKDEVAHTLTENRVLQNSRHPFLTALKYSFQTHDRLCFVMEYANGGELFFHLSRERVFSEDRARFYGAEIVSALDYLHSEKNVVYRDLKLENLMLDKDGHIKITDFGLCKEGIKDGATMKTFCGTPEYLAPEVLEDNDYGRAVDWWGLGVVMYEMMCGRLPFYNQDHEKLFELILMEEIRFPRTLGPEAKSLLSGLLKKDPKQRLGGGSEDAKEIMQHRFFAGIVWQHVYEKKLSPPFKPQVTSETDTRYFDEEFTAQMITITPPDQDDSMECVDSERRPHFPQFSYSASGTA

With `CCc1sc(C(=O)N[C@H]2CNCC[C@@H]2c2cnc3ccccc3c2)cc1-c1c(C(C)C)cnn1C` (racemic) [Compound 9], the IC50 was 88 nM on Akt1, 0.94 µM in test [1] and 2.35 µM in test [2].
The like results for `C=CCC1C[C@@H](c2ccc(Cl)c(Cl)c2)[C@H](NC(=O)c2cc(-c3c(Cl)cnn3C)c(Cl)o2)CN1` (stereo partly drawn) [Compound 106, N-((3S,4S)-6-allyl-4-(3,4-dichlorophenyl)piperidin-3-yl)-5-chloro-4-(4-chloro-1-methyl-1H-pyrazol-5-yl)furan-2-formamide] were, in that order, 2 nM, 1.02 µM and 2.51 µM.
As to `Cc1cc(C(=O)N[C@@H]2CNC(CCN3CCCCC3)C[C@H]2c2ccc(F)c(F)c2)ccc1-c1c(Cl)cnn1C` (stereo partly drawn) [Compound 102, 4-(4-chloro-1-methyl-1H-pyrazol-5-yl)-N-((3S,4S)-4-(3,4-difluorophenyl)-6-(2-(piperidin-1-yl)ethyl)piperidin-3-yl)-3-methylbenzamide], the IC50 on Akt1 is 8 nM; in test [1], 0.34 µM; in test [2] it was 0.8 µM.
The like results for `Cn1ncc(Cl)c1-c1cc(C(=O)N[C@@H]2CNC(CC(=O)NC3CCC3)C[C@H]2c2ccc(Cl)c(Cl)c2)oc1Cl` (stereo partly drawn) [Compound 120, 5-chloro-4-(4-chloro-1-methyl-1H-pyrazol-5-yl)-N-((3S,4S)-6-(2-(cyclobutylamido)-2-oxoethyl)-4-(3,4-dichlorophenyl)piperidin-3-yl)furan-2-formamide] were, in that order, 3 nM, 0.45 µM and 0.44 µM.
For `Cn1ncc(Cl)c1-c1ccc(C(=O)N[C@@H]2CNCC[C@H]2c2cccc(F)c2)cc1OC(F)(F)F` [Compound 85, 4-(4-chloro-1-methyl-1H-pyrazol-5-yl)-N-((3S,4S)-4-(3-fluorophenyl)piperidin-3-yl)-3-(trifluoromethoxy)benzamide], the figures for the IC50 (at Akt1; in test [1]; in test [2]) were 21 nM, 3.07 µM and 5.56 µM, respectively.
The like results for `Cn1ncc(Cl)c1-c1cc(C(=O)N[C@@H]2CNC(CCNS(C)(=O)=O)C[C@H]2c2ccc(F)c(F)c2)oc1Cl` (stereo partly drawn) [Compound 127, 5-chloro-4-(4-chloro-1-methyl-1H-pyrazol-5-yl)-N-((3S,4S)-4-(3,4-difluorophenyl)-6-(2-(methylsulfonamido)ethyl)piperidin-3-yl)furan-2-formamide] were, in that order, 0.3 nM, 0.67 µM and 0.89 µM.
Taken in the same sequence, the figures for `CC(Cl)c1ccc([C@H]2CCNC[C@@H]2NC(=O)c2cc(Cl)c(-c3ncnn3C)s2)cc1` (stereo partly drawn) [Compound 8, 4-chloro-5-(1-methyl-1H-1,2,4-triazol-5-yl)-N-(3,4-trans-4-(4-(1-chloroethyl)phenyl)piperidin-3-yl)thiophene-2-formamide] were 82 nM, 9.01 µM and 3.26 µM.
Taken in the same sequence, the figures for `Cn1ncc(Cl)c1-c1cc(C(=O)N[C@@H]2CNC(CCCO)C[C@H]2c2ccc(Cl)c(Cl)c2)oc1Cl` (stereo partly drawn) [Compound 111, 5-chloro-4-(4-chloro-1-methyl-1H-pyrazol-5-yl)-N-((3S,4S)-4-(3,4-dichlorophenyl)-6-(3-hydroxypropyl)piperidin-3-yl)furan-2-formamide] were 4 nM, 0.07 µM and 0.49 µM.
`Cn1ncc(Cl)c1-c1coc(C(=O)N[C@H]2CNCC[C@@H]2c2ccc(Cl)cc2)c1` (racemic) [Compound 23, 4-(4-chloro-1-methyl-1H-pyrazol-5-yl)-N-(3,4-trans-4-(4-chlorphenyl)piperidin-3-yl)furan-2-formamide]: the IC50 at Akt1 is 45 nM; in test [1] it was 1.22 µM; in test [2], 3.78 µM.
Consider `Cn1nccc1-c1ccc(C(=O)N[C@@H]2CNCC[C@H]2c2ccc(F)c(F)c2)cc1` [Compound 77, N-((3S,4S)-4-(3,4-difluorophenyl)piperidin-3-yl)-4-(1-methyl-1H-pyrazol-5-yl)benzamide], for which the IC50 is 18 nM at Akt1, 3.68 µM in test [1] and 2.81 µM in test [2].
Take `Cn1ncc(Br)c1-c1coc(C(=O)N[C@H]2CNC[C@@H]2c2ccc(F)c(F)c2)c1` (racemic) [Compound 68, 4-(4-bromo-1-methyl-1H-pyrazol-5-yl)-N-(3,4-trans-4-(3,4-difluorophenyl)pyrrolidin-3-yl)furan-2-formamide]: the IC50 at Akt1 is 679 nM; in test [1], 4.19 µM; in test [2] it was 2.84 µM.
`Cc1cc(C(=O)N[C@H]2CNCC[C@@H]2C2CCCC(Cl)C2)ncc1-c1c(Cl)cnn1C` (stereo partly drawn) [Compound 56, 5-(4-chloro-1-methyl-1H-pyrazol-5-yl)-N-(3,4-trans-4-(3-chlorocyclohexane)piperidin-3-yl)-4-methylpyridinyl-2-formamide]: the results for the IC50 (at Akt1; in test [1]; in test [2]) were 362 nM, 9.53 µM and 4.51 µM, respectively.
`Cn1ncc(Br)c1-c1csc(C(=O)N[C@@H]2CNCC[C@H]2c2ccc(F)c(F)c2)c1` [Compound 42, 4-(4-bromo-1-methyl-1H-pyrazol-5-yl)-N-((3S,4S)-4-(3,4-difluorophenyl)piperidin-3-yl)thiophene-2-formamide]: the IC50 on Akt1 was 92 nM; in test [1] it was 9.71 µM; in test [2], 8.11 µM.
The like results for `C=Cc1cnn(C)c1-c1ccc(C(=O)N[C@@H]2CNCC[C@H]2c2cccc(F)c2)s1` [Compound 144, N-((3S, 4S)-4-(3-fluorophenyl)piperidin-3-yl)-5-(1-methyl-4-vinyl-1H-pyrazol-5-yl)thiophene-2-formamide] were, in that order, 2 nM, 3.48 µM and 3.68 µM.
The like results for `Cn1ncc(Cl)c1-c1cc(C(=O)N[C@H]2CNC[C@@H]2c2ccc(C(F)(F)F)cc2)oc1Cl` (racemic) [Compound 69, 5-chloro-4-(4-chloro-1-methyl-1H-pyrazol-5-yl)-N-(3,4-trans-4-(4-trifluoromethylphenyl)pyrrolidin-3-yl)furan-2-formamide] were, in that order, 323 nM, 24.3 µM and 3.04 µM.
Consider `Cc1c(C(=O)N[C@H]2CNCC[C@@H]2C2CCCC(Cl)C2)sc(Cl)c1-c1ncnn1C` (stereo partly drawn) [Compound 18], for which the IC50 is 18 nM on Akt1, 5.69 µM in test [1] and 1.83 µM in test [2].
With `Cc1[nH]c(C(=O)N[C@H]2CNCC[C@@H]2c2cccc(C#N)c2)cc1-c1c(Br)cnn1C` (racemic) [Compound 10, 5-methyl-4-(1-methyl-4-bromo-1H-pyrazol-5-yl)-N-(3,4-trans-4-(3-cyanophenyl)piperidin-3-yl)-1H-pyrrole-2-formamide], the IC50 was 26 nM on Akt1, 6.57 µM in test [1] and 3.31 µM in test [2].
The like results for `Cn1ncc(Cl)c1-c1cc(C(=O)N[C@@H]2CNC(CC(N)=O)C[C@H]2c2ccc(Cl)c(Cl)c2)oc1Cl` (stereo partly drawn) [Compound 117, N-((3S,4S)-6-(2-amido-2-oxoethyl)-4-(3,4-dichlorophenyl)piperidin-3-yl)-5-chloro-4-(4-chloro-1-methyl-1H-pyrazol-5-yl)furan-2-formamide] were, in that order, 3 nM, 0.92 µM and 4.28 µM.
